{
  "source": "paper PMC12193096",
  "about": "(International Journal of Molecular Sciences, 2025)",
  "key": {"CSK": {"target": "T1, CSK (Homo sapiens, UniProt P41240)", "T1 construct": "EGFP-fusion of wild-type CSK", "T1 sequence (P41240 whole entry, the tested form may be a part)": "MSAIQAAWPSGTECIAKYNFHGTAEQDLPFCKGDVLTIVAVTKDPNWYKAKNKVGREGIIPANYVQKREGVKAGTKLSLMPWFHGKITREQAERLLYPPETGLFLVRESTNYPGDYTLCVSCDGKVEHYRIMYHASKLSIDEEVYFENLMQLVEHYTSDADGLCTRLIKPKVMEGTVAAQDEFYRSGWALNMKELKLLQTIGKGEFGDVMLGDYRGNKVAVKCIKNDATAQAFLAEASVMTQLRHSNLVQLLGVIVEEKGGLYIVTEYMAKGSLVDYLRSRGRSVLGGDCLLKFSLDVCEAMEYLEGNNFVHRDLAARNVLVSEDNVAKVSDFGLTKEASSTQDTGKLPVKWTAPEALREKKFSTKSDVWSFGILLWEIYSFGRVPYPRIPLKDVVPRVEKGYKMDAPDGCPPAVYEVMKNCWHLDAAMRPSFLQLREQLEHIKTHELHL", "assay": "live-cell confocal co-localization (HaloTag recruitment to endosome/F-actin) in HeLa cells", "type": "cell-based", "source_text": "live-cell confocal co-localization (HaloTag recruitment to endosome/F-actin) in HeLa cells on CSK | […]"}, "BTK": {"target": "T2, BTK (Homo sapiens, UniProt Q06187)", "T2 construct": "EGFP-fusion of wild-type BTK", "T2 sequence (Q06187 whole entry, the tested form may be a part)": "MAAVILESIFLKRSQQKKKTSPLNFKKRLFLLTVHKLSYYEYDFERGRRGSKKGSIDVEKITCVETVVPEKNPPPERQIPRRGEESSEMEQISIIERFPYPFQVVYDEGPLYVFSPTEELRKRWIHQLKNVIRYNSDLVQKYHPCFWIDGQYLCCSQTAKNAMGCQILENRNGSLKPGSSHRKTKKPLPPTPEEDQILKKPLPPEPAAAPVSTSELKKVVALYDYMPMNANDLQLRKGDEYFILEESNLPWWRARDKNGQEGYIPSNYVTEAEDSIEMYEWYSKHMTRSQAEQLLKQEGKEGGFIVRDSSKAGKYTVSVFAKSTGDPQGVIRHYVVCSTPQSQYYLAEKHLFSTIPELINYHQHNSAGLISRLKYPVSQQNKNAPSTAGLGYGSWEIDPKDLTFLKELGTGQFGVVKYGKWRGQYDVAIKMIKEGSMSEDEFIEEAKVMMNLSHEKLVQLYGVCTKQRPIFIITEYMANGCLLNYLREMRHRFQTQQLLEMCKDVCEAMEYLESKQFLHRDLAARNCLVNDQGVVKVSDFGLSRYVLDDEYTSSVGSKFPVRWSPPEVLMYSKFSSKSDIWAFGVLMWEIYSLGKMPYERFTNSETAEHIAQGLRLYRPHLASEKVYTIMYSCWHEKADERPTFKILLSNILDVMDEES", "assay": "live-cell confocal co-localization (HaloTag recruitment to endosome/F-actin) in HeLa cells", "type": "cell-based"}, "LYN": {"target": "T3, LYN (Homo sapiens, UniProt P07948)", "T3 construct": "EGFP-fusion of wild-type LYN", "T3 sequence (P07948 2-491 isoform P07948-2)": "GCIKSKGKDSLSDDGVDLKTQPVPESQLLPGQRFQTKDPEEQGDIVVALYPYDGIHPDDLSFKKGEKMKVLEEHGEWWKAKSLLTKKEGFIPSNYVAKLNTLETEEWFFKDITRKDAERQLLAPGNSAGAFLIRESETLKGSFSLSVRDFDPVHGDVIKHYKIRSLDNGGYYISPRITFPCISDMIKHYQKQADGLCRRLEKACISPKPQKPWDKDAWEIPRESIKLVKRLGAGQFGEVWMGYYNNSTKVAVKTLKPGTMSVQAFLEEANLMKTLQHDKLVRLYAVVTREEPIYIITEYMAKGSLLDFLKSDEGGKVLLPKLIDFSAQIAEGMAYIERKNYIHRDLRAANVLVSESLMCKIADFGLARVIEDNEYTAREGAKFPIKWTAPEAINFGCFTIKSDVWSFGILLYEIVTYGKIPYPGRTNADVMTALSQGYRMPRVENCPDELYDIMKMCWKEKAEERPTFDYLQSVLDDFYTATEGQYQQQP", "assay": "live-cell confocal co-localization (HaloTag recruitment to endosome/F-actin) in HeLa cells", "type": "cell-based"}, "ABL1": {"target": "T4, ABL1 (Homo sapiens, UniProt P00519)", "T4 construct": "recombinant active kinase ABL1", "T4 sequence (P00519 whole entry)": "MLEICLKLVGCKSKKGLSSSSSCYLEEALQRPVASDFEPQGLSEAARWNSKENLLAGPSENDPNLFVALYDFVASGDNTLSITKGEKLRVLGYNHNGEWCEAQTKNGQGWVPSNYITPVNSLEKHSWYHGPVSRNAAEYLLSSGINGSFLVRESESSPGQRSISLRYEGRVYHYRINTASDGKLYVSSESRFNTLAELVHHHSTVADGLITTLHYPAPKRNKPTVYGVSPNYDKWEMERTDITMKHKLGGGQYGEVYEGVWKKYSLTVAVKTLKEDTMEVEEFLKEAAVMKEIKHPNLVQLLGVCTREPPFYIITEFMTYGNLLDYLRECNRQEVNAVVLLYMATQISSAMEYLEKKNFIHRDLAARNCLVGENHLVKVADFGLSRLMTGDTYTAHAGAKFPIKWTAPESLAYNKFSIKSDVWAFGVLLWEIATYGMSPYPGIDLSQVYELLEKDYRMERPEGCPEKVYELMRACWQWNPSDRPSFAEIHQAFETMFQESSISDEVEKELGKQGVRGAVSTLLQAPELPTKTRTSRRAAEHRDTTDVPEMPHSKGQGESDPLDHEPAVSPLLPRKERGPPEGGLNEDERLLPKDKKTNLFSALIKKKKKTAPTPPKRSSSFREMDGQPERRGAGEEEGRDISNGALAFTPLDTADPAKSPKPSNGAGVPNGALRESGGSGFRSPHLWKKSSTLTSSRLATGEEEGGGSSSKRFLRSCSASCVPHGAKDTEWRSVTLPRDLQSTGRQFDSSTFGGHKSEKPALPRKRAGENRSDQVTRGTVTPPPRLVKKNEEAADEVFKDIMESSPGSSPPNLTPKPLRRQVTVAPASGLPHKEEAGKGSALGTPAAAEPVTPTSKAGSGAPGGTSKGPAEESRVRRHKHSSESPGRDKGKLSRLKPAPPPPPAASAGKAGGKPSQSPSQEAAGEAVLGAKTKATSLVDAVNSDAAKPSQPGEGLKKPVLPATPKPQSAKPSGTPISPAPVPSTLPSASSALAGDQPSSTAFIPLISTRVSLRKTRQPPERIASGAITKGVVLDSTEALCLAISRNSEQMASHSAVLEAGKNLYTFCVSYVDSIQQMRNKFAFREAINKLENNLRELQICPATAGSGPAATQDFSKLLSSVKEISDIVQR", "assay": "Kinase-Glo Plus luminescence kinase assay; also live-cell co-localization competed by excess dasatinib", "type": "biochemical"}, "YES1": {"target": "T5, YES1 (Homo sapiens, UniProt P07947)", "T5 construct": "EGFP-fusion of wild-type YES1", "T5 sequence (P07947 2-543)": "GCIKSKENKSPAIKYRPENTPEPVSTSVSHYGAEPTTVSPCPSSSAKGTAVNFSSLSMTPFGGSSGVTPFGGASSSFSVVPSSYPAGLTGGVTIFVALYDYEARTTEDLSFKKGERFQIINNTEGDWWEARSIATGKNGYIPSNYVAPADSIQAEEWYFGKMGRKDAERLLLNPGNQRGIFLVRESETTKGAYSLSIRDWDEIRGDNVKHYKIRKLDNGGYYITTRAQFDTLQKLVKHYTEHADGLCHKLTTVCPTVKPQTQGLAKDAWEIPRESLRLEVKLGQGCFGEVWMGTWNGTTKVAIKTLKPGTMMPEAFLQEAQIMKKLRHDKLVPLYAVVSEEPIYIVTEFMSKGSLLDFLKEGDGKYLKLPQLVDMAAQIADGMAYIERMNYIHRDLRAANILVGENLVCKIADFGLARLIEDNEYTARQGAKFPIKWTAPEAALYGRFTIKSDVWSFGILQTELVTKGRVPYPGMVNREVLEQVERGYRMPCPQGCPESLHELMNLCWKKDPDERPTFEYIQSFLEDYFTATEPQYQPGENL", "assay": "live-cell confocal co-localization (HaloTag recruitment to endosome/F-actin) in HeLa cells", "type": "cell-based"}, "SRC": {"target": "T6, SRC (Homo sapiens, UniProt P12931)", "T6 construct": "full-length SRC (EGFP-SRC)", "T6 sequence (P12931 2-536)": "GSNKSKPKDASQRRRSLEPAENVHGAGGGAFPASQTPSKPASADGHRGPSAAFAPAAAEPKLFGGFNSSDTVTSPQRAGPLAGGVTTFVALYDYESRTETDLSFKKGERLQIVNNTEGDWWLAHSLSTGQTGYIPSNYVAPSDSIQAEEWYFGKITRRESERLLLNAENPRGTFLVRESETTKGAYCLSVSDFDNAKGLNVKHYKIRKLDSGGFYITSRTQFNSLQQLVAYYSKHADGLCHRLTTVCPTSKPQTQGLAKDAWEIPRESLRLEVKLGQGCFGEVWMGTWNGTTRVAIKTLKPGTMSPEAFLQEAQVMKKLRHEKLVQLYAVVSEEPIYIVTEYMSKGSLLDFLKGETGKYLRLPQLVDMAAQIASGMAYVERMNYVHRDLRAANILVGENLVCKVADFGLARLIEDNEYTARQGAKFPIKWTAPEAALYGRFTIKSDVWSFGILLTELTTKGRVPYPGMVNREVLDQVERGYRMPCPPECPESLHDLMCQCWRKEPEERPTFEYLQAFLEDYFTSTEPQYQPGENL", "assay": "Western blot of pY416 autophosphorylation of EGFP-SRC in HeLa cells; live-cell co-localization imaging", "type": "cell-based"}, "FGR": {"target": "T7, FGR (Homo sapiens, UniProt P09769)", "T7 construct": "EGFP-fusion of wild-type FGR", "T7 sequence (P09769 2-529)": "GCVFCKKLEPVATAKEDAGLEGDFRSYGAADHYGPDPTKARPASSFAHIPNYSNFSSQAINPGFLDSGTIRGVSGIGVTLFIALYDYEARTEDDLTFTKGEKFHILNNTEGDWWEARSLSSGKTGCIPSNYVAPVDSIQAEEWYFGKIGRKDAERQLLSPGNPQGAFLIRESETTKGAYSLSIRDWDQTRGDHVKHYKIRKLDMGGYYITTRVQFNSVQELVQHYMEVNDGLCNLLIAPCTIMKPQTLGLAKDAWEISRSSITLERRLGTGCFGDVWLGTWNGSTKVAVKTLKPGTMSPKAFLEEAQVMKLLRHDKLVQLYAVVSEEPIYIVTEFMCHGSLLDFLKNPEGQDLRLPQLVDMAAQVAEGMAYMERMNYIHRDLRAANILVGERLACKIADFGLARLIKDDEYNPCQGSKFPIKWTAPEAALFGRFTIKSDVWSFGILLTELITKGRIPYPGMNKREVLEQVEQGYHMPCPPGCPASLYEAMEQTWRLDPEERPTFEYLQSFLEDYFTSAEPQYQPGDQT", "assay": "live-cell confocal co-localization (HaloTag recruitment to endosome/F-actin) in HeLa cells", "type": "cell-based"}, "HCK": {"target": "T8, HCK (Homo sapiens, UniProt P08631)", "T8 construct": "EGFP-fusion of wild-type HCK", "T8 sequence (P08631 2-526)": "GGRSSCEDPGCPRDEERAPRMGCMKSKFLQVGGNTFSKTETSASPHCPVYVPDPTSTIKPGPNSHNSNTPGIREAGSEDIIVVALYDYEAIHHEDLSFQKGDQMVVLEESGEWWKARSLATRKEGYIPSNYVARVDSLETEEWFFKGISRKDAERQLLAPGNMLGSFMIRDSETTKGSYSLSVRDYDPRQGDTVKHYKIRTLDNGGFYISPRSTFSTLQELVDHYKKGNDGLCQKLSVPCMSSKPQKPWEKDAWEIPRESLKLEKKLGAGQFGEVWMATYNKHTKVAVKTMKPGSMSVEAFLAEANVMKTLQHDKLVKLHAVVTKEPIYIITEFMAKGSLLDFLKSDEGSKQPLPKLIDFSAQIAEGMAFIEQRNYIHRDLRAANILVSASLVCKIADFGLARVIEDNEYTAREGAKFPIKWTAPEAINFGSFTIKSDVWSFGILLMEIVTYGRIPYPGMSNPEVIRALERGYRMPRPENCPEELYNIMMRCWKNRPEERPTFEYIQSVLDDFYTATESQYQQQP", "assay": "live-cell confocal co-localization (HaloTag recruitment to endosome/F-actin) in HeLa cells", "type": "cell-based"}},
  "data": [
    {"smiles": "Cc1nc(Nc2ncc(C(=O)Nc3c(C)cccc3Cl)s2)cc(N2CCN(CCNC(=O)CCC(=O)NCCOCCOCCCCCCCl)CC2)n1", "note": "[dasatinib−HT ligand]", "values": [
      {"measurement": "live-cell confocal co-localization (HaloTag recruitment to endosome/F-actin) in", "setting": "CSK", "value": "clearly showed binding events between dasatinib and its target kinases (ABL1, SRC, CSK, etc.) at specific subcellular structures"},
      {"measurement": "live-cell confocal co-localization (HaloTag recruitment to endosome/F-actin) in", "setting": "BTK", "value": "the GFP-fusion kinase co-localized with the intracellular compartments"},
      {"measurement": "live-cell confocal co-localization (HaloTag recruitment to endosome/F-actin) in", "setting": "LYN", "value": "the GFP-fusion kinase co-localized with the intracellular compartments"},
      {"measurement": "IC50", "setting": "ABL1", "value": 153, "unit": "nM"},
      {"measurement": "live-cell confocal co-localization (HaloTag recruitment to endosome/F-actin) in", "setting": "YES1", "value": "the GFP-fusion kinase co-localized with the intracellular compartments"},
      {"measurement": "Western blot of pY416 autophosphorylation of EGFP-SRC in HeLa cells; live-cell c", "setting": "SRC", "value": "the levels of active, phosphorylated SRC significantly decreased compared with those in vehicle-treated HeLa cells"},
      {"measurement": "live-cell confocal co-localization (HaloTag recruitment to endosome/F-actin) in", "setting": "FGR", "value": "the GFP-fusion kinase co-localized with the intracellular compartments"},
      {"measurement": "live-cell confocal co-localization (HaloTag recruitment to endosome/F-actin) in", "setting": "HCK", "value": "the GFP-fusion kinase co-localized with the intracellular compartments"}
    ]}
  ]
}
